The text below walks through data of patent US20250042942A1, “PEPTIDE HAVING PHYSIOLOGICAL ACTIVITIES AND USE THEREOF” (CAREGEN CO., LTD., priority 2021, published 2025).

Peptide text beside a SMILES is read from it.

In this data set the test system is mouse RAW264.7 cell line. The data set is described as follows: Cytotoxicity, CCK-8 assay. The class given is cell-based. As to conditions: peptide 10, 30, 30, 100, and 150 μg/ml, 3 days, CCK-8, FIG. 10B. The method, then:
The effect of the peptide of the present invention on cell proliferation was confirmed using CCK-8 assay. CCK-8 reagent is reduced by cellular dehydrogenase to produce a colored product, and the proliferation of cells may be confirmed through a difference in absorbance using this.
After removing the medium, CCK-8 solution (Dojindo, CCK-8 kit) was diluted 10 times in the culture medium and treated at 100 μl each. During incubation at 37° C., absorbance at a wavelength of 450 nm was measured using a microplate reader at 30-minute intervals.
(In general: Tetrazolium assays rely on reduction of a dye to a coloured formazan, in cell work by metabolically active cells.)

With `CC[C@H](C)[C@H](NC(=O)[C@H](C)NC(=O)[C@@H](N)CC(N)=O)C(=O)N[C@@H](CO)C(=O)N[C@H](C(=O)N[C@@H](CC(C)C)C(=O)N[C@@H](Cc1ccc(O)cc1)C(=O)N[C@@H](Cc1ccccc1)C(=O)N[C@@H](CC(=O)O)C(=O)N[C@@H](CC(=O)O)C(=O)N[C@@H](CO)C(=O)O)C(C)C` [SEQ ID NO: 1, NAISVLYFDDS] (H-NAISVLYFDDS-OH), the “toxicity to mouse macrophages” value is reported as “not toxic”.
